Laboratory results as given in paper PMC4826290 (Journal of molecular biology, 2016).

Target: T1, Pif1^238–780 (Saccharomyces cerevisiae, UniProt P07271)
T1 sequence (P07271 238-780): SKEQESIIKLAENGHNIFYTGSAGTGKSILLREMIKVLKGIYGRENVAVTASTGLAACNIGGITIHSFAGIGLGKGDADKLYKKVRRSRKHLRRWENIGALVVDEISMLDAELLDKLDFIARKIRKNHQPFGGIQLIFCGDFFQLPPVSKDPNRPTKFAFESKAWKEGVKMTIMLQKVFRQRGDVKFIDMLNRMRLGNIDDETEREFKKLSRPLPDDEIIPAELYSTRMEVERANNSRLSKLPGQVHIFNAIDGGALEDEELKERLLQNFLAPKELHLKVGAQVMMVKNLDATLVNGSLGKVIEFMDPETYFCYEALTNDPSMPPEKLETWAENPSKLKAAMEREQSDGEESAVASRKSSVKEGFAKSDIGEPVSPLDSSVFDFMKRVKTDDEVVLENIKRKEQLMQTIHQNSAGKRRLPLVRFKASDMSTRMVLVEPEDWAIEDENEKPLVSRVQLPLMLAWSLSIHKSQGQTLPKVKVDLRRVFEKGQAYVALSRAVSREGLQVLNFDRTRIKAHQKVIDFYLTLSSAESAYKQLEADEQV
Assay: ssDNA-dependent ATPase
Assay type: biochemical

Q: For `Nc1ncnc2c1ncn2[C@@H]1O[C@H](COP(=O)(O)OP(=O)(O)OP(=O)(O)O)[C@@H](O)[C@H]1O` [ATP], which KATP is on record?
A: does not have major effects on the DNA-dependent ATPase activity and the KATP (Figure S1)
